Experimental data as given in patent US20240199642A1, “METHOD FOR OBTAINING RIFAPENTINE WITH A NEW CRYSTALLINE FORM” (INTERQUIM S.A. DE C.V., priority 2021, published 2024).

Tests used:
[1] = hygroscopicity under normal handling and storage conditions; format: physicochemical
[2] = stability under normal storage conditions and normal formulation manipulations; format: physicochemical

With `CO[C@H]1/C=C/O[C@@]2(C)Oc3c(C)c(O)c4c(O)c(c(/C=N/N5CCN(C6CCCC6)CC5)c(O)c4c3C2=O)NC(=O)/C(C)=C\C=C\[C@H](C)[C@H](O)[C@@H](C)[C@@H](O)[C@@H](C)[C@H](OC(C)=O)[C@@H]1C` [crystalline form of rifapentine, Rifapentine] the hygroscopicity ([1]; normal handling and storage conditions) was “non-hydroscopic”, the hygroscopicity ([1]; normal storage conditions and normal formulation manipulations) was “non-hygroscopic” and the stability [2] was “stable”.
